Measurements: PubChem BioAssay (NCI)
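GI50: concentration for 50% inhibition of growth. The concentration for full growth arrest is given as TGI.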

Assays:
Test in all cases: DTP human tumour cell line panel, 384-well format
786-0 renal = tested on: 786-0 renal
A498 renal = tested on: A498 renal
A549 NSCLC = tested on: A549 NSCLC
ACHN renal = tested on: ACHN renal
BT-549 breast = tested on: BT-549 breast
CAKI-1 renal = tested on: CAKI-1 renal
COLO 205 colon = tested on: COLO 205 colon
DU-145 prostate = tested on: DU-145 prostate
HCT-15 colon = tested on: HCT-15 colon
HL-60(TB) leukemia = tested on: HL-60(TB) leukemia
HOP-62 NSCLC = tested on: HOP-62 NSCLC
HOP-92 NSCLC = tested on: HOP-92 NSCLC
HS 578T breast = tested on: HS 578T breast
HT29 colon = tested on: HT29 colon
K-562 leukemia = tested on: K-562 leukemia
KM12 colon = tested on: KM12 colon
LOX IMVI melanoma = tested on: LOX IMVI melanoma
M14 melanoma = tested on: M14 melanoma
MALME-3M melanoma = tested on: MALME-3M melanoma
MCF7 breast = tested on: MCF7 breast
MDA-MB-231 breast = tested on: MDA-MB-231 breast
MDA-MB-435 melanoma = tested on: MDA-MB-435 melanoma
MDA-MB-468 breast = tested on: MDA-MB-468 breast
MOLT-4 leukemia = tested on: MOLT-4 leukemia
NCI-H322M lung = tested on: NCI-H322M lung
NCI-H460 NSCLC = tested on: NCI-H460 NSCLC
NCI/ADR-RES ovarian = tested on: NCI/ADR-RES ovarian
OVCAR-4 ovarian = tested on: OVCAR-4 ovarian
OVCAR-5 ovarian = tested on: OVCAR-5 ovarian
PC-3 prostate = tested on: PC-3 prostate
RPMI-8226 leukemia = tested on: RPMI-8226 leukemia
SF-268 CNS = tested on: SF-268 CNS
SF-295 CNS = tested on: SF-295 CNS
SF-539 CNS = tested on: SF-539 CNS
SK-MEL-28 melanoma = tested on: SK-MEL-28 melanoma
SK-MEL-5 melanoma = tested on: SK-MEL-5 melanoma
SK-OV-3 ovarian = tested on: SK-OV-3 ovarian
SN12C renal = tested on: SN12C renal
SNB-19 CNS = tested on: SNB-19 CNS
SNB-75 CNS = tested on: SNB-75 CNS
SR leukemia = tested on: SR leukemia
SW-620 colon = tested on: SW-620 colon
T-47D breast = tested on: T-47D breast
TK-10 renal = tested on: TK-10 renal
U251 glioblastoma = tested on: U251 glioblastoma
UACC-257 melanoma = tested on: UACC-257 melanoma
UACC-62 melanoma = tested on: UACC-62 melanoma

For NC(=O)c1nc(-c2c(F)cccc2Cl)oc1Nc1ccc(C(=O)N2CCOCC2)cc1, the GI50 ([…]-0 renal) was 3.95 µM, the TGI (786-0 renal) was 9.55 µM and the GI50 (A498 renal) was 1.86 µM. It also gave a TGI (A498 renal) of 16.1 µM, a GI50 (A549 NSCLC) of 0.686 µM and a TGI (A549 NSCLC) of 5.44 µM. For the same compound, the GI50 (ACHN renal) was 0.779 µM, the TGI (ACHN renal) was 3.6 µM and the GI50 (BT-549 breast) was 2 µM. The TGI (BT-549 breast) was 5.84 µM, the GI50 (CAKI-1 renal) was 1.76 µM and the TGI (CAKI-1 renal) was 5.85 µM. The GI50 (COLO 205 colon) was 1.13 µM, the TGI (COLO 205 colon) was 7.44 µM and the GI50 (DU-145 prostate) was 4.44 µM. For the same compound, the TGI (DU-145 prostate) was 23.2 µM, the GI50 (HCT-15 colon) was 2.41 µM and the TGI (HCT-15 colon) was 19 µM. The GI50 (HL-60(TB) leukemia) was 0.36 µM, the TGI (HL-60(TB) leukemia) was 1.09 µM and the GI50 (HOP-62 NSCLC) was 2.41 µM. For the same compound, the TGI (HOP-62 NSCLC) was 19.6 µM, the GI50 (HOP-92 NSCLC) was 0.576 µM and the TGI (HOP-92 NSCLC) was 2.35 µM. The GI50 (HS 578T breast) was 1.34 µM, the TGI (HS 578T breast) was 3.75 µM and the GI50 (HT29 colon) was 2.48 µM. It also gave a TGI (HT29 colon) of 25 µM, a GI50 (K-562 leukemia) of 1.62 µM and a TGI (K-562 leukemia) of 15 µM. The GI50 (KM12 colon) was 0.17 µM, the TGI (KM12 colon) was 3.89 µM and the GI50 (LOX IMVI melanoma) was 0.869 µM. The TGI (LOX IMVI melanoma) was 2.39 µM, the GI50 (M14 melanoma) was 17.3 µM and the TGI (M14 melanoma) was over 47.5 µM. It also gave a GI50 (MALME-3M melanoma) of 4.68 µM, a TGI (MALME-3M melanoma) of 12.3 µM and a GI50 (MCF7 breast) of 0.708 µM. For the same compound, the TGI (MCF7 breast) was 16.8 µM, the GI50 (MDA-MB-231 breast) was 1.34 µM and the TGI (MDA-MB-231 breast) was 5.94 µM. It also gave a GI50 (MDA-MB-435 melanoma) of 11.8 µM, a TGI (MDA-MB-435 melanoma) of over 51 µM and a GI50 (MDA-MB-468 breast) of 1.5 µM. For the same compound, the TGI (MDA-MB-468 breast) was 4.23 µM, the GI50 (MOLT-4 leukemia) was 0.182 µM and the TGI (MOLT-4 leukemia) was 0.436 µM. It also gave a GI50 (NCI-H322M lung) of 6.5 µM, a TGI (NCI-H322M lung) of 23.6 µM and a GI50 (NCI-H460 NSCLC) of 0.395 µM. For the same compound, the TGI (NCI-H460 NSCLC) was 10.6 µM, the GI50 (NCI/ADR-RES ovarian) was 2.46 µM and the TGI (NCI/ADR-RES ovarian) was 7.79 µM. It also gave a GI50 (OVCAR-4 ovarian) of 2.09 µM, a TGI (OVCAR-4 ovarian) of 6.3 µM and a GI50 (OVCAR-5 ovarian) of 2.47 µM. For the same compound, the TGI (OVCAR-5 ovarian) was 19.6 µM, the GI50 (PC-3 prostate) was 4.22 µM and the TGI (PC-3 prostate) was 27.2 µM. For the same compound, the GI50 (RPMI-8226 leukemia) was 0.444 µM, the TGI (RPMI-8226 leukemia) was 4.28 µM and the GI50 (SF-268 CNS) was 2.45 µM. The TGI (SF-268 CNS) was 11.2 µM, the GI50 (SF-295 CNS) was 2.95 µM and the TGI (SF-295 CNS) was over 45.9 µM. It also gave a GI50 (SF-539 CNS) of 1.45 µM, a TGI (SF-539 CNS) of 7.64 µM and a GI50 (SK-MEL-28 melanoma) of 14.2 µM. For the same compound, the TGI (SK-MEL-28 melanoma) was over 90.9 µM, the GI50 (SK-MEL-5 melanoma) was 13.6 µM and the TGI (SK-MEL-5 melanoma) was 34.7 µM. For the same compound, the GI50 (SK-OV-3 ovarian) was 6.28 µM, the TGI (SK-OV-3 ovarian) was 28.6 µM and the GI50 (SN12C renal) was 1.64 µM. For the same compound, the TGI (SN12C renal) was 13.6 µM, the GI50 (SNB-19 CNS) was 3.46 µM and the TGI (SNB-19 CNS) was 24.9 µM. It also gave a GI50 (SNB-75 CNS) of 1.78 µM, a TGI (SNB-75 CNS) of 4.24 µM and a GI50 (SR leukemia) of 0.189 µM. The TGI (SR leukemia) was 0.342 µM, the GI50 (SW-620 colon) was 0.48 µM and the TGI (SW-620 colon) was 3.37 µM. It also gave a GI50 (T-47D breast) of 0.682 µM, a TGI (T-47D breast) of 20.7 µM and a GI50 (TK-10 renal) of 2.58 µM. The TGI (TK-10 renal) was 8.79 µM, the GI50 (U251 glioblastoma) was 2.59 µM and the TGI (U251 glioblastoma) was 16 µM. It also gave a GI50 (UACC-257 melanoma) of 23.1 µM, a TGI (UACC-257 melanoma) of over 54.8 µM and a GI50 (UACC-62 melanoma) of 5.96 µM. For the same compound, the TGI (UACC-62 melanoma) was 20.4 µM.
